Measured values: ChEMBL document CHEMBL1938361, “Elaborate ligand-based modeling and subsequent synthetic exploration unveil new nanomolar Ca2+/calmodulin-dependent protein kinase II inhibitory leads” (Bioorg Med Chem, 2012)

Biological target: Calcium/calmodulin-dependent protein kinase type II subunit delta (Homo sapiens, UniProt Q13557)
Experiment: Inhibition of human recombinant CAMK2delta using tetramethylbenzidine as substrate by spectrophotometry analysis

Calcium/calmodulin-dependent protein kinase type II subunit delta, sequence (Q13557 whole entry): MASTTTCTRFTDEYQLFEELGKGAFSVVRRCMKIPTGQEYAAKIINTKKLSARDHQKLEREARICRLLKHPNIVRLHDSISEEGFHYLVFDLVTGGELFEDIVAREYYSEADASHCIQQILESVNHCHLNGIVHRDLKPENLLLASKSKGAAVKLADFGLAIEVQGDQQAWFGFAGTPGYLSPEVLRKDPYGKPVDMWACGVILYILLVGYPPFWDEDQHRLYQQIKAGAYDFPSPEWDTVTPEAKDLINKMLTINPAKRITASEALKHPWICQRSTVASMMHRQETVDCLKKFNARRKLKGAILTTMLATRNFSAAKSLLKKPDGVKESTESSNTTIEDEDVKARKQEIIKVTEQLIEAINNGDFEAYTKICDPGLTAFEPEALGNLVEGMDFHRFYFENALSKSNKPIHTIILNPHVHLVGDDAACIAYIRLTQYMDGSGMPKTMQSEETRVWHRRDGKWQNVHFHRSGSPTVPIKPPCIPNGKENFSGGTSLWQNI

- IC50: 380 nM
SMILES: CN([C@@H](Cc1ccc(OS(=O)(=O)c2cccc3cnccc23)cc1)C(=O)N1CCN(c2ccccc2)CC1)S(=O)(=O)c1cccc2cnccc12
